Experimental data reported in patent US7858653B2, “2-imidazoles” (Hoffman-La Roche Inc., priority 2006, dated 2010).
pKd: −log10 of the molar value.

Target: T1, mouse TAAR1 (Mus musculus, UniProt Q923Y8)
T1 construct: expressed in transfected cells; host or cells: HEK293 cells (ATCC # CRL-1573), stably transfected with pIRESneo2 expression plasmid; membranes prepared
Assay: Radioligand binding assay on membranes of HEK293 cells stably expressing TAAR1
Conditions: TAAR1 membrane binding; species not given; read-out: calculated Kd value of the radioligand
Procedure: Construction of TAAR Expression Plasmids and Stably Transfected Cell Lines
For the construction of expression plasmids the coding sequences of human, rat and mouse TAAR1 were amplified from genomic DNA essentially as described by Lindemann et al. (2005) genomics 85, 372-385. The Expand High Fidelity PCR System (Roche Diagnostics) was used with 1.5 mM Mg^2+ and purified PCR products were cloned into pCR2.1-TOPO cloning vector (Invitrogen) following the instructions of the manufacturer. PCR products were subcloned into the pIRESneo2 vector (BD Clontech, Palo Alto, Calif.), and expression vectors were sequence verified before introduction in cell lines.
HEK293 cells (ATCC # CRL-1573) were cultured essentially as described Lindemann et al. (2005) genomics 85, 372-385. For the generation of stably transfected cell lines HEK293 cells were transfected with the pIRESneo2 expression plasmids containing the TAAR coding sequences (described above) with Lipofectamine 2000 (Invitrogen) according to the instructions of the manufacturer, and 24 hours post transfection the culture medium was supplemented with 1 mg/ml G418 (Sigma, Buchs, Switzerland). After a culture period of about 10 d clones were isolated, expanded and tested for responsiveness to trace amines (all compounds purchased from Sigma) with the cAMP Biotrak Enzyme immunoassay (EIA) System (Amersham) following the non-acetylation EIA procedure provided by the manufacturer.
Membrane Preparation and Radioligand Binding
Cells at confluence were rinsed with ice-cold phosphate buffered saline without Ca^2+ and Mg^2+ containing 10 mM EDTA and pelleted by centrifugation at 1000 rpm for 5 minutes at 4° C. The pellet was then washed twice with ice-cold phosphate buffered saline and the cell pellet was frozen immediately by immersion in liquid nitrogen and stored until use at −80° C. The cell pellet was then suspended in 20 ml HEPES-NaOH (20 mM), pH 7.4 containing 10 mM EDTA, and homogenized with a Polytron (PT 3000, Kinematica) at 10,000 rpm for 10 seconds. The homogenate was centrifuged at 48,000×g for 30 minutes at 4° C. and the pellet resuspended in 20 ml HEPES-NaOH (20 mM), pH 7.4 containing 0.1 mM EDTA (buffer A), and homogenized with a Polytron at 10,000 rpm for 10 seconds. The homogenate was then centrifuged at 48,000×g for 30 minutes at 4° C. and the pellet resuspended in 20 ml buffer A, and homogenized with a Polytron at 10,000 rpm for 10 seconds. Protein concentration was determined by the method of Pierce (Rockford, Ill.). The homogenate was then centrifuged at 48,000×g for 10 minutes at 4° C., resuspended in HEPES-NaOH (20 mM), pH 7.0 including MgCl2 (10 mM) and CaCl2 ([…]) (buffer B) at 200 μg protein per ml and homogenized with a Polytron at 10,000 rpm for 10 seconds.
Binding assay was performed at 4° C. in a final volume of 1 ml, and with an incubation time of 30 minutes. The radioligand [^3H]-rac-2-(1,2,3,4-tetrahydro-1-naphthyl)-2-imidazoline was used at a concentration equal to the calculated Kd value of 60 nM to give a total binding at around 0.1% of the total added radioligand concentration, and a specific binding which represented approximately 70-80% of the total binding. Non-specific binding was defined as the amount of [^3H]-rac-2-(1,2,3,4-tetrahydro-1-naphthyl)-2-imidazoline bound in the presence of the appropriate unlabelled ligand (10 μM). Competing ligands were tested in a wide range of concentrations (10 pM-30 μM). […] Each experiment was performed in duplicate. All incubations were terminated by rapid filtration through UniFilter-96 plates (Packard Instrument Company) and glass filter GF/C, pre-soaked for at least 2 hours in polyethylenimine 0.3%, and using a Filtermate 96 Cell Harvester (Packard Instrument Company). […]

T1 sequence (Q923Y8 whole entry): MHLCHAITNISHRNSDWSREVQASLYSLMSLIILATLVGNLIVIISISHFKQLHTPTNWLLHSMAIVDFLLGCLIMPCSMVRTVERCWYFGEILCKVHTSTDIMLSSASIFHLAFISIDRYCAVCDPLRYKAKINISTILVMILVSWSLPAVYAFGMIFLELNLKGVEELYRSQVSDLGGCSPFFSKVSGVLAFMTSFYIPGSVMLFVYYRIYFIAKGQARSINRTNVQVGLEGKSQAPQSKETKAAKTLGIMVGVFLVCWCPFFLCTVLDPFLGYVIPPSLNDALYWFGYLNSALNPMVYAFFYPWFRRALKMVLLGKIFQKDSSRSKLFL

| Compound | pKd |
| --- | --- |
| c1ccc2c(c1)CCCC2C1=NCCN1 (racemic) [[^3H]-rac-2-(1,2,3,4-tetrahydro-1-naphthyl)-2-imidazoline, reference compound] | 7.22 |

Same assay, conditions: mouse TAAR1; radioligand [3H]-rac-2-(1,2,3,4-tetrahydro-1-naphthyl)-2-imidazoline at 60 nM; 4° C., 30 minutes

| Ki | Compound |
| --- | --- |
| 0.46 µM | CC(Nc1ncc[nH]1)c1ccccc1 (racemic) [Example 9, (R,S)-(1H-Imidazol-2-yl)-(1-phenyl-ethyl)-amine] |
| 0.81 µM | Cc1ccccc1C(C)Nc1ncc[nH]1 (racemic) [Example 21, (R,S)-(1H-Imidazol-2-yl)-(1-o-tolyl-ethyl)-amine] |
| 0.076 µM | CC(Nc1ncc[nH]1)c1cccc(Cl)c1Cl (racemic) [Example 22, (R,S)-[1-(2,3-Dichloro-phenyl)-ethyl]-(1H-imidazol-2-yl)-amine] |
| 0.24 µM | CC(Nc1ncc[nH]1)c1ccccc1Cl (racemic) [Example 29, (RS)-[1-(2-Chloro-phenyl)-ethyl]-(1H-imidazol-2-yl)-amine] |
| 0.78 µM | COC(Cc1ncc[nH]1)c1cccc(Cl)c1 (stereo not shown) [Example 1, 2-[2-(3-Chloro-phenyl)-2-methoxy-ethyl]-1H-imidazole] |
| 0.14 µM | Clc1cccc(SCc2ncc[nH]2)c1Cl [Example 3, 2-(2,3-Dichloro-phenylsulfanylmethyl)-1H-imidazole] |
| 0.86 µM | Clc1cccc(CNc2ncc[nH]2)c1 [Example 6, (3-Chloro-benzyl)-(1H-imidazol-2-yl)-amine] |
| 0.47 µM | Clc1ccc(CNc2ncc[nH]2)cc1Cl [Example 7, (3,4-Dichloro-benzyl)-(1H-imidazol-2-yl)-amine] |
| 0.18 µM | Clc1cccc(CNc2ncc[nH]2)c1Cl [Example 8, (2,3-Dichloro-benzyl)-(1H-imidazol-2-yl)-amine] |
| 0.94 µM | Cc1cccc(CNc2ncc[nH]2)c1 [Example 11, (1H-Imidazol-2-yl)-(3-methyl-benzyl)-amine] |
| 0.98 µM | Fc1cccc(CNc2ncc[nH]2)c1 [Example 16, (3-Fluoro-benzyl)-(1H-imidazol-2-yl)-amine] |
| 0.67 µM | c1ccc2cc(CNc3ncc[nH]3)ccc2c1 [Example 24, (1H-Imidazol-2-yl)-naphthalen-2-ylmethyl-amine] |
